PMC4501059, “Responding to the challenge of untreatable gonorrhea: ETX0914, a first-in-class agent with a distinct mechanism-of-action against bacterial Type II topoisomerases” (Scientific Reports, 2015)
In brackets after ≈: the same amount, converted by molar mass. Read-outs that look alike come from different tables or passages of the source.

What was measured:
Staphylococcus aureus = settings: cited from earlier work
mouse lymphoma cells = experiment: in vitro mouse micronucleus aberration assay (MMA); type: cell-based
Protocol: (§1) In vitro toxicology. Experiments for assessing micronuclei in mouse lymphoma cells^19 myeloid cytotoxicity^20 and erythroid cytotoxicity^21 were performed as described previously.

Neisseria gonorrhoeae = settings: cited from earlier work
Iks/Kv7.1 = Iks/Kv7.1 (Homo sapiens, UniProt P51787); experiment: In vitro ion channel function; type: cell-based; settings: Iks/Kv7.1 IC50, Slowly activating K^+ delayed rectifier
Text: (§2) Supplement srep11827-s1.doc, table 3 | column: Table S2: In vitro ion channel function IC50 (µM)

Ito/Kv4.3 = target: T1, Ito/Kv4.3 (Homo sapiens, UniProt Q9UK17); experiment: In vitro ion channel function; type: cell-based; settings: Ito/Kv4.3 IC50, Transient outward K^+ early repolarization
T1 sequence (Q9UK17 1-655): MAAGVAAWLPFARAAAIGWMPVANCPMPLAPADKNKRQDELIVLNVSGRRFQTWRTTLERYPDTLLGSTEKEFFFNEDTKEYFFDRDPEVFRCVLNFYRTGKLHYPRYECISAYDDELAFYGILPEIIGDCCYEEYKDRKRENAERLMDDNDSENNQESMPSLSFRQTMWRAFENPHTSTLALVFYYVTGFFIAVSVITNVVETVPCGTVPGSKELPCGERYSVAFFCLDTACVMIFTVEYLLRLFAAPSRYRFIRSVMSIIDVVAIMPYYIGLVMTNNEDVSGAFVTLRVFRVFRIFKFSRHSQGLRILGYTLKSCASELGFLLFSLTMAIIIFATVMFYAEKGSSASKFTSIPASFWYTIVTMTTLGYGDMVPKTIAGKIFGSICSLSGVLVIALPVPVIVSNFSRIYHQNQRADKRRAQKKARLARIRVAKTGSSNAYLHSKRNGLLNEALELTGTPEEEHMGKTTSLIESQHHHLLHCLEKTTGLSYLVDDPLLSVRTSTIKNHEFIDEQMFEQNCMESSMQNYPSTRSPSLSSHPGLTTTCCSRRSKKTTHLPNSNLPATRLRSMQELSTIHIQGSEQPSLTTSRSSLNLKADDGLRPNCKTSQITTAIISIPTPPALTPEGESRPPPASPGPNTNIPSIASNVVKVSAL
Text: as §2

Kv1.5 = Kv1.5 (Homo sapiens, UniProt P22460); experiment: In vitro ion channel function; type: cell-based; settings: Ikr/Kv1.5 IC50, Rapidly activating K^+ delayed rectifier
Text: as §2

hCav1.2 = hCav1.2 (Homo sapiens, UniProt Q13936); experiment: In vitro ion channel function; type: cell-based; settings: hCav1.2 IC50, Ca^2+ entry into excitable cells
Text: as §2

hNav1.5 = hNav1.5 (Homo sapiens, UniProt Q14524); experiment: In vitro ion channel function; type: cell-based; settings: hNav1.5 IC50, Initiation of cardiac action potential/QRS interval
Text: as §2

hERG = hERG (Homo sapiens, UniProt Q12809); experiment: In vitro ion channel function; settings: hERG IC50, K^+ rectifying current/QT interval
S. aureus ARC516 = experiment: MIC (CLSI broth microdilution); type: cell-based
[1] = tested on: S. aureus AP607004 (MRQR); experiment: MIC (CLSI broth microdilution); type: cell-based
S. pneumoniae ATCC49619 = experiment: MIC (CLSI broth microdilution); type: cell-based
[2] = tested on: S. pneumoniae ARC2205 (ERQR); experiment: MIC (CLSI broth microdilution); type: cell-based
N. gonorrhoeae ATCC49226 = experiment: MIC (CLSI agar dilution); type: cell-based
[3] = tested on: N. gonorrhoeae ARC4676 (QR); type: cell-based
Dog pharmacokinetics = type: in vivo, Beagle dog; settings: beagle, dog, plasma
Protocol: AZD0914 was analyzed in mouse, rat, dog, monkey plasma using a qualified method which was later validated for human plasma analysis. The validated human method is described below and is representative of the approach taken in other species. AZD0914 was determined in human plasma prepared with K2EDTA as an anticoagulant. AZD0914 and an internal standard (^13C2, ^15N2 AZD0914) were extracted from plasma with tert- butyl methyl ether. After evaporating to dryness under a stream of nitrogen, the residue was reconstituted and quantitated by reverse phase HPLC-MS/MS against a standard curve from 1.00 to 5000 ng/ml. Separation was achieved using a gradient which went from 55% to 85% methanol:acetonitrile (1:1) containing 0.2% formic acid as mobile phase B and 0.2% formic acid in water as mobile phase A at a flow rate of 0.60 ml/min through a Phenomonex Gemini C18 column (50 x 2.0 mm column, […]) heated using a Shimadzu CTO-20AC set to 40 °C. AZD0914 was detected in multiple reaction monitoring (MRM) mode by positive ion electrospray ionization using a Sciex API5500 (Toronto, Canada) mass spectrometer. The ion spray voltage was set to 5500 V and turboionspray temperature was 650 °C. AZD0914 was quantitated using the MRM transition 488.2 → 348.2 using a collision energy of 29 eV. The internal standard, (^13C2, ^15N2 AZD0914), was monitored using identical conditions except for the MRM transition of 492.2 → 348.2.

[4] = Human plasma protein binding (PPB); settings: plasma
[5] = comparative haematology analysis in the rat, oral dosing; settings: for AUC: in vivo, po
[6] = tested on: mammalian erythroid cell lines; experiment: erythroid cytotoxicity (growth inhibition); type: cell-based; settings: read-out: Erythroid IC50
Protocol: as §1

[7] = tested on: mammalian myeloid cell lines; experiment: myeloid cytotoxicity (growth inhibition); type: cell-based; settings: read-out: Myeloid IC50
Protocol: as §1

[8] = tested on: resistant isolates of S. aureus, S. pneumoniae and N. gonorrhoeae; type: cell-based; settings: for susceptibility of spontaneous ETX0914 resistant mutants: S. aureus and N. gonorrhoeae GyrB mutants
[9] = Table 2, first entry of the cell (ciprofloxacin: 250 mg UID line)

Sequence of Iks/Kv7.1 (P51787 whole entry): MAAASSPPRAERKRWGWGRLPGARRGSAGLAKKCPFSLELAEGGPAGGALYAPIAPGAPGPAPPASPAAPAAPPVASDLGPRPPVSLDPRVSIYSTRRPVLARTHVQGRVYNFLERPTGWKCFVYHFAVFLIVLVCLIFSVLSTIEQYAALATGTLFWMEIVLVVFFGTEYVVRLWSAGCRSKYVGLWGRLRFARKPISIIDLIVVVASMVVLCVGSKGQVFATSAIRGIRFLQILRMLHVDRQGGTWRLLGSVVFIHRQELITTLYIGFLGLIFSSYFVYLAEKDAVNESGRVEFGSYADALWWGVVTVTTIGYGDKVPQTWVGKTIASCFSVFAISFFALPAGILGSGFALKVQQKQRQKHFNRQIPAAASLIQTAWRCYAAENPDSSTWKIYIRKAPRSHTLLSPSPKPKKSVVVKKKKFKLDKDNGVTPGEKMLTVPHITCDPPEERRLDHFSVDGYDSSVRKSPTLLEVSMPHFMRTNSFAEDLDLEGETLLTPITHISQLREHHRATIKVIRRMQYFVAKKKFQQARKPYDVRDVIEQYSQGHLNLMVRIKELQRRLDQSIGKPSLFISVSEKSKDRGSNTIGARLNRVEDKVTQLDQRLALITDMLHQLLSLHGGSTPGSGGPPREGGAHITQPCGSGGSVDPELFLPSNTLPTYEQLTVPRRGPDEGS
Sequence of hNav1.5 (Q14524 whole entry): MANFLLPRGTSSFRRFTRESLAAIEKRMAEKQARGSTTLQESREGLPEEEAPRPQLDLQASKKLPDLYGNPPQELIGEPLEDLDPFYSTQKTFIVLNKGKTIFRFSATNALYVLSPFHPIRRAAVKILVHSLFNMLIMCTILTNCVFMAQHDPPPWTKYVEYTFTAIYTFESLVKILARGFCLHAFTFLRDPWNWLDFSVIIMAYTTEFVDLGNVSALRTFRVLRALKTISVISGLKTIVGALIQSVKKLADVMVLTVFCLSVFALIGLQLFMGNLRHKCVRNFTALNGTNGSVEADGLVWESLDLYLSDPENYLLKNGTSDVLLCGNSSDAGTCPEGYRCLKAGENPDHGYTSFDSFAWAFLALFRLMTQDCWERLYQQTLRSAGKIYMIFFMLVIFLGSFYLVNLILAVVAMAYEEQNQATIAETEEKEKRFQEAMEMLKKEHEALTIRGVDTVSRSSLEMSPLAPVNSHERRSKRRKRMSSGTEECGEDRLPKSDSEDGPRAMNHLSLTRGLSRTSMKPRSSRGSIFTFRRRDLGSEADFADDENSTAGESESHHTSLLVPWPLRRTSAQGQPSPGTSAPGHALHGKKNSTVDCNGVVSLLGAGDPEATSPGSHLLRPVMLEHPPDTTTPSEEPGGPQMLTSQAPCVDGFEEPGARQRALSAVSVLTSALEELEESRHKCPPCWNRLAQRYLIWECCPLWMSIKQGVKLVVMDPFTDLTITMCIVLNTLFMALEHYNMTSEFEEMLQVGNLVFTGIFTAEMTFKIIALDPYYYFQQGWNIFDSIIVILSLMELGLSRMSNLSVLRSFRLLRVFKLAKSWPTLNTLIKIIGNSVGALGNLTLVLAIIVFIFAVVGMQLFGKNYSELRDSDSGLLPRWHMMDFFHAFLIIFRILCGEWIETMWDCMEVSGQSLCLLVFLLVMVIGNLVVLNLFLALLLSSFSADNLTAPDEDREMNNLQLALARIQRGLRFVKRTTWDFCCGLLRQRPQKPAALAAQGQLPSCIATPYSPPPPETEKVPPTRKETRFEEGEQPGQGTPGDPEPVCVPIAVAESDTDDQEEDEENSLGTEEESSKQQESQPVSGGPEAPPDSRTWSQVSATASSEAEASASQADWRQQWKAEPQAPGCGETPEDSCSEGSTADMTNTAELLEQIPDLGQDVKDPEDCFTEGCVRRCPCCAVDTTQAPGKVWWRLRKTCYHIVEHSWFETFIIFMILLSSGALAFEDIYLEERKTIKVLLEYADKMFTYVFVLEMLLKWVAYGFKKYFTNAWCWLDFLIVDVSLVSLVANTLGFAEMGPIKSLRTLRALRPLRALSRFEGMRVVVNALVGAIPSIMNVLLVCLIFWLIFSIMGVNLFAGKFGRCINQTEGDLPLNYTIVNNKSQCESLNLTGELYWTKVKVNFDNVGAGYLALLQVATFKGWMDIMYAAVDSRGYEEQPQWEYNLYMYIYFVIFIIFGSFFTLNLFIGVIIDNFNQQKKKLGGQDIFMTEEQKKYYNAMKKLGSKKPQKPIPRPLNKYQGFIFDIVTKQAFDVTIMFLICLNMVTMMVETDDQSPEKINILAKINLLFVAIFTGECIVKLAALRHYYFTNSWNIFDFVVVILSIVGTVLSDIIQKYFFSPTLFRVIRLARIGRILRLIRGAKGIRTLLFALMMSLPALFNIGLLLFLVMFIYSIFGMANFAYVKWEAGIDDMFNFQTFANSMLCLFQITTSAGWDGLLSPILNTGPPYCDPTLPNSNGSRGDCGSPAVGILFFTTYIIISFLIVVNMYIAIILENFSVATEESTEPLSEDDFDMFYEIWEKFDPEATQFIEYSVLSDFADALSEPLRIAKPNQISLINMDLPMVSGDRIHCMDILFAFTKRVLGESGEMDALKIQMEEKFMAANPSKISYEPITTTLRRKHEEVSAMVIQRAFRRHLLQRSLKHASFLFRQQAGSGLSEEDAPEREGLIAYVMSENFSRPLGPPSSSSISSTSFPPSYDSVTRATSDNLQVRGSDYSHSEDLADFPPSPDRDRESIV
Sequence of hERG (Q12809 whole entry): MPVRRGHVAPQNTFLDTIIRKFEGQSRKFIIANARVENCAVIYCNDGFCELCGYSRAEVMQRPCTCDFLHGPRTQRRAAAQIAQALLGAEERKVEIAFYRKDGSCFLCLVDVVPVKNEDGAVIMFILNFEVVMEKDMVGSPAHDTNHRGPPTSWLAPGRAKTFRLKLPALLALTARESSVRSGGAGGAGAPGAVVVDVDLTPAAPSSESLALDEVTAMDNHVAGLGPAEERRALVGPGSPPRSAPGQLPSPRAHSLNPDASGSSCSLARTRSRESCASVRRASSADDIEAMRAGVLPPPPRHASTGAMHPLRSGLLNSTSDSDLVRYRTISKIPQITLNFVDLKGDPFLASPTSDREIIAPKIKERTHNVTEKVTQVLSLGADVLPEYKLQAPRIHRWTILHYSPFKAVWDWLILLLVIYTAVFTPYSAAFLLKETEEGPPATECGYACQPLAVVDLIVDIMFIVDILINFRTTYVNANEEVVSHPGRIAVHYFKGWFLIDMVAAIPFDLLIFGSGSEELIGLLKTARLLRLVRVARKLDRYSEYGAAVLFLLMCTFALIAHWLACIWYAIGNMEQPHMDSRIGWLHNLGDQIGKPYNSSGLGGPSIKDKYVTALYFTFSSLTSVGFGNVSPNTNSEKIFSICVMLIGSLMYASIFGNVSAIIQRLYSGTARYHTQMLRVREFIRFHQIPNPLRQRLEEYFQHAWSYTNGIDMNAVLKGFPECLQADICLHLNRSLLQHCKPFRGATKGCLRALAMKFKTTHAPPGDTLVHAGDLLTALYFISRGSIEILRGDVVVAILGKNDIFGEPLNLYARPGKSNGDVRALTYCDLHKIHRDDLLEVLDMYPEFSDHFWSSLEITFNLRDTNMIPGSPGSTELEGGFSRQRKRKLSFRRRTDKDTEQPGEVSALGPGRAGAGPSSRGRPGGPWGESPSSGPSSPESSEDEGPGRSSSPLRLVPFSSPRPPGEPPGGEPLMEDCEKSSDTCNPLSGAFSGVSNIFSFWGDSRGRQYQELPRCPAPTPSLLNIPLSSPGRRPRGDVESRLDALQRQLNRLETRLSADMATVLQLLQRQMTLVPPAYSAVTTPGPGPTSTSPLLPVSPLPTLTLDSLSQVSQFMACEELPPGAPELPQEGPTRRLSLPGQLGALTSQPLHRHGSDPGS
Sequence of Kv1.5 (P22460 whole entry): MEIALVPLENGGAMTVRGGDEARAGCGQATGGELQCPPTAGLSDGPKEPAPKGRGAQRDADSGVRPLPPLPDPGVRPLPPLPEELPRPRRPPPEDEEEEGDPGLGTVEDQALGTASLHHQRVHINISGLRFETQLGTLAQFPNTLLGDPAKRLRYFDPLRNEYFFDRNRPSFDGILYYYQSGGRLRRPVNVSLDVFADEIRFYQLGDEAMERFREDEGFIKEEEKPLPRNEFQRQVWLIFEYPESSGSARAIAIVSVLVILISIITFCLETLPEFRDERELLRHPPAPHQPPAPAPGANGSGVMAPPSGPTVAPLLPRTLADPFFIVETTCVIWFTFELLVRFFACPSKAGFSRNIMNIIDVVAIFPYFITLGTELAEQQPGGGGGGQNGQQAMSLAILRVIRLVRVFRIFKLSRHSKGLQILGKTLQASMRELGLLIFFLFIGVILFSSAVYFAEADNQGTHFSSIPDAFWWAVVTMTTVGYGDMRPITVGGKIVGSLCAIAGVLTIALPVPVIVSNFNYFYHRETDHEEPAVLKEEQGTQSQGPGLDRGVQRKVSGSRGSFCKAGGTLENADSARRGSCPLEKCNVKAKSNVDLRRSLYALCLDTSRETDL

SMILES | IC50 (Iks/Kv7.1) [µM] | IC50 (Ito/Kv4.3) [µM] | IC50 (hCav1.2) [µM] | IC50 (hNav1.5) [µM] | IC50 (hERG) [µM] | MIC: S. aureus ARC516 (S. aureus ARC516) [µg/mL] | MIC: S. aureus AP607004 (MRQR) [1] [µg/mL] | MIC: S. pneumoniae ATCC49619 (S. pneumoniae ATCC49619) [µg/mL] | MIC: S. pneumoniae ARC2205 (ERQR) [2] [µg/mL] | MIC: N. gonorrhoeae ATCC49226 (N. gonorrhoeae ATCC49226) [µg/mL] | MIC: N. gonorrhoeae ARC4676 (QR) [3] [µg/mL] | Dog F (Dog pharmacokinetics) [%] | clearance (Dog pharmacokinetics) [mL/min/kg] | Micronucleus NOEL (mouse lymphoma cells; in vitro) [µM] | solubility (physchem) [µM] | fraction unbound [4] | IC50 [6] [µM] | IC50 [7] [µM] | also measured
CO/N=C(\C(=O)N[C@@H]1C(=O)N2C(C(=O)O)=C(CSc3nc(=O)c(=O)[nH]n3C)CS[C@H]12)c1csc(N)n1 [Ceftriaxone, reference compound] |  |  |  |  |  |  |  |  |  |  |  |  |  |  |  |  |  |  | MIC90 for S. aureus (Staphylococcus aureus): 8 µg/mL
O=C(O)c1cn(C2CC2)c2cc(N3CCNCC3)c(F)cc2c1=O [Ciprofloxacin 2, Ciprofloxacin, reference compound] |  |  |  |  |  |  |  |  |  |  |  |  |  |  |  |  |  |  | Micronucleus NOEL (mouse lymphoma cells; mouse): 200 µM; MIC90, gonococcal infection (N. gonorrhoeae) (Neisseria gonorrhoeae; [9]): 0.06 to 0.12 µg/mL; MIC90, gonococcal infection (N. gonorrhoeae) (Neisseria gonorrhoeae; second entry of the cell, 500 mg UID line): 0.25 to 0.5 µg/mL
C[C@@H]1CN2c3c(cc4c(N5C(=O)OC[C@@H]5C)noc4c3F)CC3(C(=O)NC(=O)NC3=O)[C@H]2[C@H](C)O1 [Compound 1] | > 316 | > 292 | > 100 | > 316 | 232 |  |  |  |  |  |  |  |  |  |  |  |  |  | IC50 (Kv1.5): > 100 µM
Cc1noc2c(F)c3c(cc12)CC1(C(=O)NC(=O)NC1=O)[C@H]1[C@H](C)O[C@H](C)CN31 [Compound 5, (2R,4S,4aS)-11-Fluoro-2,4,8-trimethyl-2,4,4a,6-tetrahydro-1H,1'H-spiro[isoxazolo[4,5-g][1,4]oxazino[4,3-a]quinoline-5,5'-pyrimidine]-2',4',6'(3'H)-trione] | > 100 | > 100 | > 100 | > 80 | > 100 | 0.25 (≈ 0.621 µM) | 0.5 (≈ 1.24 µM) | 1.0 (≈ 2.49 µM) | 2.0 (≈ 4.97 µM) | 0.5 (≈ 1.24 µM) | 0.5 (≈ 1.24 µM) | 47 | 5.3 | 50 | 210 (≈ 84.5 µg/mL) | 0.094 |  |  | concentration giving a measurable genotoxicity signal in the in vitro MMA (mouse lymphoma cells; mouse): 100 µM; IC50 (Kv1.5): > 100 µM
C[C@@H]1CN2c3c(cc4c(-n5cncn5)noc4c3F)CC3(C(=O)NC(=O)NC3=O)[C@H]2[C@H](C)O1 [Compound 6] | > 333 | 224 | > 100 | > 333 | 237 | 0.031 (≈ 0.0681 µM) | 0.063 (≈ 0.138 µM) | 0.125 (≈ 0.274 µM) | 0.125 (≈ 0.274 µM) | 0.25 (≈ 0.549 µM) | 0.125 (≈ 0.274 µM) | 99 | 4.5 | 3 | 73 (≈ 33.2 µg/mL) | 0.13 |  |  | haematologic effects ([5]; 100 mg/kg/day for 14 days in the rat): decreases in reticulocytes, neutrophils, lymphocytes and monocytes; AUC ([5]; rat, 100 mg/kg): 950 µM·h; AUC ([5]; rat, 250 mg/kg): 1700 µM·h; reticulocytes count ([5]; rat, 6 at the higher dose (250 mg/kg, 5 d), linezolid 6 d): significant suppression; neutrophil count ([5]; rat, both doses of 6, linezolid): showing suppression; lymphocyte counts ([5]; rat, higher dose of 6): leading to suppression; white blood cell count ([5]; rat, higher dose of 6): leading to suppression
C[C@@H]1CN2c3c(cc4c(C(=O)NCC(F)(F)F)noc4c3F)CC3(C(=O)NC(=O)NC3=O)[C@H]2[C@H](C)O1 [Compound 7] | > 100 | > 90 | > 100 | > 100 | 91 | 0.125 (≈ 0.243 µM) | 0.25 (≈ 0.487 µM) | 0.125 (≈ 0.243 µM) | 0.125 (≈ 0.243 µM) | 0.25 (≈ 0.487 µM) | 0.25 (≈ 0.487 µM) | 74 | 5.8 | 100 | 77 (≈ 39.5 µg/mL) | 0.13 | 95 | 43 | IC50 (Kv1.5): > 100 µM
Cc1nnc(-c2noc3c(F)c4c(cc23)CC2(C(=O)NC(=O)NC2=O)[C@H]2[C@H](C)O[C@H](C)CN42)o1 [Compound 8] |  |  |  |  |  | 0.25 (≈ 0.531 µM) | 0.25 (≈ 0.531 µM) | 0.125 (≈ 0.266 µM) | 0.25 (≈ 0.531 µM) | 1 (≈ 2.13 µM) | 1 (≈ 2.13 µM) | 32 | 4.7 | > 200 | 1350 (≈ 635 µg/mL) | 0.13 | > 100 | 76 | 
CO/N=C1\CN(c2nc3c(cc2F)c(=O)c(C(=O)O)cn3C2CC2)CC1CN (stereo not drawn) [Gemifloxacin, reference compound] |  |  |  |  |  |  |  |  |  |  |  |  |  | 3 |  |  | 7 | 10 | concentration giving a measurable genotoxicity signal in the in vitro MMA (mouse lymphoma cells): 6 µM
C[C@H]1COc2c(N3CCN(C)CC3)c(F)cc3c(=O)c(C(=O)O)cn1c23 [Levofloxacin, reference compound] |  |  |  |  |  | 0.25 (≈ 0.692 µM) | 8 (≈ 22.1 µM) | 0.5 (≈ 1.38 µM) | 16 (≈ 44.3 µM) |  |  |  |  |  |  |  | 88 | 79 | 
N#Cc1ccc2ccc(=O)n(CCN3CC[C@H](NCc4cc5c(cn4)OCCO5)[C@H](F)C3)c2c1 [NBTI 3, 1-[2-[(3R,4S)-4-(2,3-Dihydro-[1,4]dioxino[2,3-c]pyridin-7-ylmethylamino)-3-fluoro-1-piperidyl]ethyl]-2-oxo-quinoline-7-carbonitrile] |  |  |  |  |  |  |  |  |  |  |  |  |  |  |  |  |  |  | susceptibility of fluoroquinolone resistant isolate ARC4680 ([8]; N. gonorrhoeae ARC4680): reduced susceptibility; susceptibility of spontaneous ETX0914 resistant mutants [8]: fully susceptible
CO[C@@H]1[C@@H](OC(N)=O)[C@@H](O)[C@H](Oc2ccc3c(O)c(NC(=O)c4ccc(O)c(CC=C(C)C)c4)c(=O)oc3c2C)OC1(C)C [Novobiocin 4, Novobiocin] |  |  |  |  |  |  |  |  |  |  |  |  |  |  |  |  |  |  | susceptibility of fluoroquinolone resistant clinical isolates ([8]; S. aureus ARC2381, S. pneumoniae ARC2480, N. gonorrhoeae ARC4672, ARC4680, ARC4676): fully susceptible; susceptibility of spontaneous ETX0914 resistant mutants [8]: fully susceptible
CC1COc2c(N3CCN(C)CC3)c(F)cc3c(=O)c(C(=O)O)cn1c23 (stereo not drawn) [Ofloxacin, reference compound] |  |  |  |  |  |  |  |  |  |  |  |  |  |  |  |  |  |  | MIC90, skin infection (S. aureus) (Staphylococcus aureus; Table 2): 2 µg/mL (≈ 5.53 µM); MIC90, gonococcal infection (N. gonorrhoeae) (Neisseria gonorrhoeae; [9]): 0.25 to 0.5 µg/mL
